Results published in patent publication US6406679B1, “Use of HL-60-related lectins in drug delivery and detection of lectin-expressing cells” (Incyte Pharmaceuticals, Inc., priority 1992, dated 2002).
“And” between values parts separate entries of the source, which are not always exact repeats. Identical values can stand only once.

Assays:
[1] = system: Jurkat T-cells on inflamed rat brain vascular endothelium; test: Binding to inflamed brain endothelium sections; assay type: cell-based, human; conditions: 250 μg/ml lectin
rat lymphocytes = test: Binding to sections of lymphoid organs (lymph nodes and Peyer's patch); assay type: cell-based; conditions: control level binding very low, result cannot be relied on
Procedure: Sections of lymphoid organs (lymph nodes and Peyer's patch) were tested as above.

BALB/c and C57B/6 mice = test: Experimental autoimmune myasthenia gravis (EAMG): clinical signs of neuromuscular dysfunction; assay type: in vivo, mouse
From the text: Experimental autoimmune myasthenia gravis (EAMG) is an antibody-mediated autoimmune disease responding to acetylcholine receptors (AChR). This condition in mice is a recognized model for studying the effects of the autoimmune response on neuromuscular transmission (Levi, G. et al., Eur. J. Immunol. (1983) 13:500-507; Lefvert, A. K. et al., Scand. J. Immunol. (1978) 8:525; Lefvert, A. K. et al., J. Neuro. Immunol. (1985) 9:41; Lefvert, A. K. et al., Eur. J. Immunol. (1982) 12:790). It appears that myasthenia gravis is mediated by T helper cells, which produce acetylcholine receptor antibodies. The disease is induced in mice by injection of acetylcholine receptor. The acetylcholine receptor is obtained from the electric organ of the ray Torpedo marmorata and purified by affinity chromatography on Naja naja siamensis neurotoxin crosslinked to Sephadex.
Young adult female BALB/c and C57B/6 mice (2-4 months of age) were used because they differ in EAMG susceptibility. The mice were injected subcutaneously with 10 μg of purified acetylcholine receptor, in Freund's complete adjuvant without and with the 14 kD-β-gal lectin.
Blood was obtained after 3 days and after 1, 2, 3 and 4 weeks. To follow the development of the disease, the mice were observed daily for signs of neuromuscular dysfunction and after 10 days subjected to forced exercise using repetitive grasping, swimming and inverted hang. These exercises were repeated after warming under a heat lamp at 35° C. for 5 min.

BALB/c mice = test: B-cell repertoire: hybridoma clones producing antibodies against the immunizing antigen; assay type: in vivo, mouse; conditions: for Number of Clones Producing Antibodies: 180 primary clones; for Experimental % of Control: clones with lectin vs antigen only
Procedure: The effect of the recombinant lectin on B-cell activation in BALB/c mice was also assayed using standard assays determining the number of hybridomas secreting antibodies to the administered antigen.
Three BALB/c female mice (7-8 weeks old) were injected intraperitoneally with 5 μg of […], tetanus toxoid or pneumococcal polysaccharide, respectively, in complete Freund's adjuvant. Two weeks later, the mice were injected intravenously with the same amount of antigen in 0.15 M sodium phosphate buffer, pH 7.4. […]. A mixture of capsular polysaccharide extracts from 23 different serotypes of Streptococcus pneumoniae (Pneumovax®) was obtained from Merck Sharp & Dohme, Inc. (West Point, Pa.). Three other mice of the same strain were similarly immunized with these antigens in combination with 15 μg of the recombinant lectin; controls received only the antigens.
The animals were sacrificed 4 days after the booster injection and spleen cells (10^8 cells) were fused with the nonsecreting B-lymphocytoma cell line SP2-OAg14 (2×10^7 cells). The cell mixture was distributed in 6×96 Costar tray wells (2×10^5 cells/well) with a feeder layer of mouse peritoneal macrophages (5×10^5 cells/well). From the third day in culture HAT (hypoxanthine-aminopterin-thymidine) medium was added. After 10-14 days, supernatants were assayed for binding to the respective antigens used for immunization using an enzyme-linked immunosorbent assay (ELISA).

lymph node cells = test: Proliferative response of draining lymph node cells of GPBP/CFA-injected rats; assay type: in vivo, rat
Procedure: At the indicated times after injection of 50 μg GPBP/CFA, lymph nodes draining the site of injection were collected and tested for a proliferative response to GPBP, purified protein derivative (PPD), and the T-cell mitogen, Concanavalin A (ConA). Consistent with the DTH test, lymph node cells of the lectin-treated rats had low or absent responses to both GPBP and PPD relative to control rats, especially on days 14 and 21 during which EAE onset occurs.

Lewis rats = test: Skin allografts (Brown Norway skin on Lewis rats); assay type: in vivo, rat; design: key to Hair Growth / Hair Growth, Mean + SD column: whether or not (+ or −) hair growth was restored in the tissue; whether or not (+ or −) hair growth was restored in the tissue
Procedure: The work in this report was done in the laboratory of Drs. Arthur Vandenbark and Halina Offner at the Oregon VA Medical Center. Brown Norway rat skin was transplanted onto the back of Lewis rats. Identical grafts were done on both sides of each animal's back and the results of each side (separated by commas) were shown for each parameter in Tables 9 and 10. […] A 250 μg/animal dose of lectin was administered i.v. daily on days 2-17.
The protocols for the studies reported in Tables 9 and 10 differed only in that the lectin was delivered for four additional days up to day 21 (see Table 10).

Human blood cells = test: Staining of lectin-pretreated human blood cells with fluoresceinated antibodies (histogram analyses); assay type: cell-based
From the text: Human blood cells were pretreated with the inventive HL-60 lectin and then stained with fluoresceinated antibody having several different specificities. Control cells were not pretreated with lectin. […] However, the effect of lectin treatment on M1 and M3 macrophages was significant.

[2] = Day 2 to Day 17, individual animals, first-listed graft side, listed as rIML-1
[3] = Day 2 to Day 17, individual animals, second-listed graft side, listed as rIML-1
[4] = Day 2 to Day 21, individual animals, first-listed graft side, listed as rIML-1
[5] = Day 2 to Day 21, individual animals, second-listed graft side, listed as rIML-1
[6] = HLA-DR, lectin-pretreated cells
[7] = NK(L-A), lectin-pretreated cells

Substance: Lectin: Soluble 14 kD β-galactoside-binding HL-60/placenta lectin of FIG. 1 (SEQ ID NO:2), prepared recombinantly in E. coli
- Binding to Inflamed Brain Endothelium [1]: did not bind
- Effect on binding of rat lymphocytes to lymphoid organ sections (rat lymphocytes): no noticeable effect
- Mice Showing Clinical Signs of Neuromuscular Dysfunction (%) (BALB/c and C57B/6 mice; BALB/c, Receptor + 2.5 μg Lectin s.c.): 18%
- Mice Showing Clinical Signs of Neuromuscular Dysfunction (%) (BALB/c and C57B/6 mice; BALB/c, Receptor + 12 μg Lectin s.c.): 4%
- Mice Showing Clinical Signs of Neuromuscular Dysfunction (%) (BALB/c and C57B/6 mice; C57B/6, Receptor + 2.5 μg Lectin s.c.): 59%
- Mice Showing Clinical Signs of Neuromuscular Dysfunction (%) (BALB/c and C57B/6 mice; C57B/6, Receptor + 12 μg Lectin s.c.): 11%
- neuromuscular deterioration (BALB/c and C57B/6 mice; both strains, higher lectin dose levels): markedly slowed
- Number of Clones Producing Antibodies (BALB/c mice; Pneumococcal polysaccharide + 15 μg lectin): 111
- Experimental % of Control (BALB/c mice; Pneumococcal polysaccharide): 78%
- Number of Clones Producing Antibodies (BALB/c mice; Tetanus toxoid + 15 μg lectin): 79
- Experimental % of Control (BALB/c mice; Tetanus toxoid): 48%
- Number of Clones Producing Antibodies (BALB/c mice; Torpedo receptor + 15 μg lectin): 54
- Experimental % of Control (BALB/c mice; Torpedo receptor): 41%
- lymph node cell proliferative responses to GPBP and PPD (lymph node cells; lectin-treated rats relative to control, especially days 14 and 21, FIG. 12): low or absent
- lymph node cell responses to ConA (lymph node cells; lectin-treated rats, FIG. 12): normal or augmented
- delay of rejection of the grafts (Lewis rats; 250 μg/animal i.v. daily days 2-17, versus control): 7 days
- Rejection (on day), Mean ± SD (Lewis rats; Day 2 to Day 17): 17 ± 2 days
- Degeneration (on day) (Lewis rats; [2]): 15 day and 11, day and 14 day
- Hair Growth (Lewis rats; [2]): +, + (3×) and − and +
- Rejection (on day) (Lewis rats; [2]): 16 day and 13, day and 16, day and 18, day (2×)
- Degeneration (on day) (Lewis rats; [3]): 16 day (2×) and 13 day
- Hair Growth (Lewis rats; [3]): +, + (3×) and +
- Rejection (on day) (Lewis rats; [3]): 17 day and 15 day and 16 day and 18 day (2×)
- Histology (Lewis rats; Day 2 to Day 17, individual animals, listed as rIML-1): 0
- Degeneration (on day), Mean + SD (Lewis rats; Day 2 to Day 21): 17 ± 2 days
- Hair Growth, Mean + SD column (Lewis rats; Day 2 to Day 21): +
- Rejection (on day), Mean + SD (Lewis rats; Day 2 to Day 21): 19 ± 2 days
- Degeneration (on day) (Lewis rats; [4]): 15 day (3×) and 18, 18 day and 17 day and 18 day
- Hair Growth (Lewis rats; [4]): +, + (5×) and −
- Rejection (on day) (Lewis rats; [4]): 18 day (2×) and 19, 19 day and 21, 21 day and 17 day and 19 day
- Degeneration (on day) (Lewis rats; [5]): 19 day (3×) and 18 day and 18, 18 day and 11 day
- Hair Growth (Lewis rats; [5]): +, + (5×) and +
- Rejection (on day) (Lewis rats; [5]): 23 day and 19, 19 day and 21, 21 day and 13 day and 20 day and 22 day
- +FL1 (Human blood cells; CD3+, lectin-pretreated cells): 458
- +mode (Human blood cells; CD3+, lectin-pretreated cells): 416
- percent (Human blood cells; CD3+, lectin-pretreated cells): 77.8%
- +FL1 (Human blood cells; CD4+, lectin-pretreated cells): 181.5
- +mode (Human blood cells; CD4+, lectin-pretreated cells): 151
- percent (Human blood cells; CD4+, lectin-pretreated cells): 46.4%
- +FL1 (Human blood cells; [6]): 614
- +mode (Human blood cells; [6]): 432
- percent (Human blood cells; [6]): 13.3%
- +FL1 (Human blood cells; M1, lectin-pretreated cells): 403
- +mode (Human blood cells; M1, lectin-pretreated cells): 387
- percent (Human blood cells; M1, lectin-pretreated cells): 46.1%
- reduction of the percent of positive cells (Human blood cells; M1 macrophages, lectin vs control): 33%
- +FL1 (Human blood cells; M3, lectin-pretreated cells): 549
- +mode (Human blood cells; M3, lectin-pretreated cells): 517
- percent (Human blood cells; M3, lectin-pretreated cells): 45.1%
- reduction of the percent of positive cells (Human blood cells; M3 macrophages, lectin vs control): 26%
- +FL1 (Human blood cells; [7]): 106
- +mode (Human blood cells; [7]): 94.7
- percent (Human blood cells; [7]): 10.8%
- changes for CD3+, CD4+, NK(L-A) or HLA-DR cell markers (Human blood cells; lectin vs control): No significant changes
